# Source: PubChem BioAssay (NCI)
#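 Method: 48-hour compound exposure of cells in 96-well plates, five concentrations, linear interpolation of endpoints. GI50: concentration for 50% inhibition of growth. TGI denotes the concentration required for complete inhibition of growth.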
# Experiments:
# Assay in all cases: NCI anticancer screen, dose series, 48 h
# [1] = tested on: IGROV1 ovarian
# [2] = tested on: HOP-62 NSCLC
# [3] = tested on: SNB-75 CNS
# [4] = tested on: BT-549 breast
# [5] = tested on: EKVX NSCLC
# [6] = tested on: HOP-92 NSCLC
# [7] = tested on: ACHN renal
# [8] = tested on: COLO 205 colon
# [9] = tested on: NCI-H522 lung
# [10] = tested on: HCT-116 colon
# [11] = tested on: A498 renal
# [12] = tested on: SK-MEL-5 melanoma
# [13] = tested on: MCF7 breast
# [14] = tested on: CCRF-CEM leukemia
# [15] = tested on: K-562 leukemia
# [16] = tested on: KM12 colon
# [17] = tested on: UO-31 renal
# [18] = tested on: CAKI-1 renal
# [19] = tested on: RXF 393 renal
# [20] = tested on: TK-10 renal
# [21] = tested on: NCI-H23 lung
# [22] = tested on: SF-539 CNS
# [23] = tested on: UACC-257 melanoma
# [24] = tested on: SN12C renal
# [25] = tested on: A549 NSCLC
# [26] = tested on: HCC-2998 colon
# [27] = tested on: MDA-MB-231 breast
compound,measurement,setting,value
CCOC(=O)/C=C/C1=C(c2csc3ccccc23)c2ccccc2CC1,TGI,[1],> 100 µM
same,GI50,[2],41.6 µM
same,TGI,[2],> 100 µM
same,GI50,[3],15.2 µM
same,TGI,[3],74.4 µM
same,GI50,[4],99.3 µM
same,TGI,[4],> 100 µM
same,GI50,[5],54.2 µM
same,TGI,[5],> 100 µM
same,GI50,[6],48.6 µM
same,TGI,[6],> 100 µM
same,GI50,[7],30.2 µM
same,TGI,[7],> 100 µM
same,GI50,[8],18.8 µM
same,TGI,[8],53.9 µM
same,GI50,[9],27.6 µM
same,TGI,[9],> 100 µM
same,GI50,[10],24.6 µM
same,TGI,[10],70.9 µM
same,GI50,[11],55.4 µM
same,TGI,[11],> 100 µM
same,GI50,[12],28.5 µM
same,TGI,[12],> 100 µM
same,GI50,[13],66.3 µM
same,TGI,[13],> 100 µM
same,GI50,[14],27.9 µM
same,TGI,[14],> 100 µM
same,GI50,[15],23.2 µM
same,TGI,[15],> 100 µM
same,GI50,[16],12.7 µM
same,TGI,[16],56.4 µM
same,GI50,[17],58.1 µM
same,TGI,[17],> 100 µM
same,GI50,[18],14.8 µM
same,TGI,[18],57.9 µM
same,GI50,[19],33.7 µM
same,TGI,[19],> 100 µM
same,GI50,[20],16.6 µM
same,TGI,[20],61.7 µM
same,GI50,[21],> 100 µM
same,TGI,[21],> 100 µM
same,GI50,[22],> 100 µM
same,TGI,[22],> 100 µM
same,GI50,[23],23.4 µM
same,TGI,[23],82.6 µM
same,GI50,[24],73.7 µM
same,TGI,[24],> 100 µM
same,GI50,[25],31.1 µM
same,TGI,[25],> 100 µM
same,GI50,[26],55.5 µM
same,TGI,[26],> 100 µM
same,GI50,[27],34.9 µM
same,TGI,[27],> 100 µM
